# Test results: ChEMBL document CHEMBL3351292, “Structure-Based Design and Synthesis of Potent Cyclic Peptides Inhibiting the YAP-TEAD Protein-Protein Interaction” (ACS Med Chem Lett, 2014)
# Where a SMILES comes first, the peptide text is derived from it.
# What was measured:
# [1] = target: Transcriptional coactivator YAP1/Transcriptional enhancer factor TEF-1 (Homo sapiens, UniProt P28347); assay: Inhibition of YAP/ GST-TEAD1 (unknown origin) interaction by surface plasmon resonance assay; format: protein assay
# Chain of Transcriptional coactivator YAP1/Transcriptional enhancer factor TEF-1 (P46937 whole entry): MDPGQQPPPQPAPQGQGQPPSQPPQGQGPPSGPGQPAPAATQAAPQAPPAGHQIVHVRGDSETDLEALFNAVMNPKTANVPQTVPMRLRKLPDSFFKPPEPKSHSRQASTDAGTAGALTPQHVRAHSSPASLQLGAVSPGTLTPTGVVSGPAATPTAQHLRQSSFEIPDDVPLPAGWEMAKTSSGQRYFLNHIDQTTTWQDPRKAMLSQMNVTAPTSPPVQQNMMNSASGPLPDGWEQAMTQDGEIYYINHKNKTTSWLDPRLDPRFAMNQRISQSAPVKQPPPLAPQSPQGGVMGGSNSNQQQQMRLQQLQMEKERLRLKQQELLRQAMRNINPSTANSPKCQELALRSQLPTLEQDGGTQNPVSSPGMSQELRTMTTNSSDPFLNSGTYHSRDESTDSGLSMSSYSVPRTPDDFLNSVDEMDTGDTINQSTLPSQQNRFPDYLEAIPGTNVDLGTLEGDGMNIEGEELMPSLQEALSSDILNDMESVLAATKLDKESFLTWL
# Chain of Transcriptional coactivator YAP1/Transcriptional enhancer factor TEF-1 (P28347 whole entry): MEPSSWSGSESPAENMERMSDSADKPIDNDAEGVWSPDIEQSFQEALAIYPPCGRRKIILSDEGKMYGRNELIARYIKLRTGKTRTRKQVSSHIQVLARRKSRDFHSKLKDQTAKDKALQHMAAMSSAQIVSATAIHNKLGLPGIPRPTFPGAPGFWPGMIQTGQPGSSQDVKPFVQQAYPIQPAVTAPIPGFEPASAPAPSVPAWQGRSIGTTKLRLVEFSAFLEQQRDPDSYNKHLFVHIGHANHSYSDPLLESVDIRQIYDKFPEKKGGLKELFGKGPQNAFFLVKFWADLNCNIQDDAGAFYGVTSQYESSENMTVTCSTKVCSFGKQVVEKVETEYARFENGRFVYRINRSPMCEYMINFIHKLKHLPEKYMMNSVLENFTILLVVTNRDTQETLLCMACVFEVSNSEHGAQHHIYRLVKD
# [2] = target: Transcriptional coactivator YAP1/Transcriptional enhancer factor TEF-1 (Homo sapiens) (UniProt P46937+P28347); assay: Inhibition of YAP/ GST-TEAD1 (unknown origin) interaction at 50 uM by surface plasmon resonance assay; format: protein assay
# Chain of Transcriptional coactivator YAP1/Transcriptional enhancer factor TEF-1 (Homo sapiens) (P28347 whole entry, looked up): as the sequence (P28347 whole entry) above
# Chain of Transcriptional coactivator YAP1/Transcriptional enhancer factor TEF-1 (Homo sapiens) (P46937 whole entry, looked up): as the sequence (P46937 whole entry) above
Structure (SMILES),IC50 [1] [µM],inhibition [2] [%]
CCCCCC[C@@H]1NC(=O)[C@H](CCCCN)NC(=O)[C@H](CCCNC(=N)N)NC(=O)[C@H](CC(C)C)NC(=O)[C@@H](NC(=O)[C@H](CCSC)NC(=O)[C@@H]2CCCN2C(=O)[C@@H](NC(C)=O)C(C)C)CCSSC[C@@H](C(=O)N[C@@H](CCCCN)C(=O)N2CCC[C@H]2C(=O)N2CCC[C@H]2C(=O)N[C@@H](CCC(=O)O)C(N)=O)NC(=O)[C@H](Cc2ccccc2)NC(=O)[C@H](CO)NC(=O)[C@H](C)NC(=O)[C@@H]2CCCN2C1=O,0.37,–
CSCC[C@H](NC(=O)[C@@H]1CCCN1C(=O)[C@@H](NC(C)=O)C(C)C)C(=O)N[C@H]1CCSSC[C@@H](C(=O)N[C@@H](CCCCN)C(=O)N2CCC[C@H]2C(=O)N2CCC[C@H]2C(=O)N[C@@H](CCC(=O)O)C(N)=O)NC(=O)[C@H](Cc2ccccc2)NC(=O)[C@H](CO)NC(=O)[C@H](C)NC(=O)[C@@H]2CCCN2C(=O)[C@H](CCC(C)C)NC(=O)[C@H](CCCCN)NC(=O)[C@H](CCCNC(=N)N)NC(=O)[C@H](CC(C)C)NC1=O,0.62,–
CSCC[C@H](NC(=O)[C@@H]1CCCN1C(=O)[C@@H](NC(C)=O)C(C)C)C(=O)N[C@H]1CCSSC[C@@H](C(=O)N[C@@H](CCCCN)C(=O)N2CCC[C@H]2C(=O)N2CCC[C@H]2C(=O)N[C@@H](CCC(=O)O)C(N)=O)NC(=O)[C@H](Cc2ccccc2)NC(=O)[C@H](CO)NC(=O)[C@H](C)NC(=O)[C@@H]2CCCN2C(=O)[C@H](CCCC(C)C)NC(=O)[C@H](CCCCN)NC(=O)[C@H](CCCNC(=N)N)NC(=O)[C@H](CC(C)C)NC1=O,0.31,–
CCCC[C@H](NC(=O)[C@@H]1CCCN1C(=O)[C@@H](NC(C)=O)C(C)C)C(=O)N[C@H]1CCSSC[C@@H](C(=O)N[C@@H](CCCCN)C(=O)N2CCC[C@H]2C(=O)N2CCC[C@H]2C(=O)N[C@@H](CCC(=O)O)C(N)=O)NC(=O)[C@H](Cc2ccccc2)NC(=O)[C@H](CO)NC(=O)[C@H](C)NC(=O)[C@@H]2CCCN2C(=O)[C@H](CCCC)NC(=O)[C@H](CCCCN)NC(=O)[C@H](CCCNC(=N)N)NC(=O)[C@H](CC(C)C)NC1=O,0.34,–
CCCCC[C@H](NC(=O)[C@@H]1CCCN1C(=O)[C@@H](NC(C)=O)C(C)C)C(=O)N[C@H]1CCSSC[C@@H](C(=O)N[C@@H](CCCCN)C(=O)N2CCC[C@H]2C(=O)N2CCC[C@H]2C(=O)N[C@@H](CCC(=O)O)C(N)=O)NC(=O)[C@H](Cc2ccccc2)NC(=O)[C@H](CO)NC(=O)[C@H](C)NC(=O)[C@@H]2CCCN2C(=O)[C@H](CCCC)NC(=O)[C@H](CCCCN)NC(=O)[C@H](CCCNC(=N)N)NC(=O)[C@H](CC(C)C)NC1=O,0.041,–
CCCC[C@@H]1NC(=O)[C@H](CCCCN)NC(=O)[C@H](CCCNC(=N)N)NC(=O)[C@H](CC(C)C)NC(=O)[C@@H](NC(=O)[C@H](Cc2ccccc2)NC(=O)[C@@H]2CCCN2C(=O)[C@@H](NC(C)=O)C(C)C)CCSSC[C@@H](C(=O)N[C@@H](CCCCN)C(=O)N2CCC[C@H]2C(=O)N2CCC[C@H]2C(=O)N[C@@H](CCC(=O)O)C(N)=O)NC(=O)[C@H](Cc2ccccc2)NC(=O)[C@H](CO)NC(=O)[C@H](C)NC(=O)[C@@H]2CCCN2C1=O,0.35,–
CCCC[C@@H]1NC(=O)[C@H](CCCCN)NC(=O)[C@H](CCCNC(=N)N)NC(=O)[C@H](CC(C)C)NC(=O)[C@@H](NC(=O)[C@H](Cc2ccccc2Cl)NC(=O)[C@@H]2CCCN2C(=O)[C@@H](NC(C)=O)C(C)C)CCSSC[C@@H](C(=O)N[C@@H](CCCCN)C(=O)N2CCC[C@H]2C(=O)N2CCC[C@H]2C(=O)N[C@@H](CCC(=O)O)C(N)=O)NC(=O)[C@H](Cc2ccccc2)NC(=O)[C@H](CO)NC(=O)[C@H](C)NC(=O)[C@@H]2CCCN2C1=O,0.38,–
CCCC[C@@H]1NC(=O)[C@H](CCCCN)NC(=O)[C@H](CCCNC(=N)N)NC(=O)[C@H](CC(C)C)NC(=O)[C@@H](NC(=O)[C@H](Cc2ccc(Cl)cc2)NC(=O)[C@@H]2CCCN2C(=O)[C@@H](NC(C)=O)C(C)C)CCSSC[C@@H](C(=O)N[C@@H](CCCCN)C(=O)N2CCC[C@H]2C(=O)N2CCC[C@H]2C(=O)N[C@@H](CCC(=O)O)C(N)=O)NC(=O)[C@H](Cc2ccccc2)NC(=O)[C@H](CO)NC(=O)[C@H](C)NC(=O)[C@@H]2CCCN2C1=O,0.53,–
CCCC[C@@H]1NC(=O)[C@H](CCCCN)NC(=O)[C@H](CCCNC(=N)N)NC(=O)[C@H](CC(C)C)NC(=O)[C@@H](NC(=O)[C@H](CCSC)NC(=O)[C@@H]2CCCN2C(=O)[C@@H](NC(C)=O)C(C)C)CCSSC[C@@H](C(=O)N[C@@H](CCCCN)C(=O)N2CCC[C@H]2C(=O)N2CCC[C@H]2C(=O)N[C@@H](CCC(=O)O)C(N)=O)NC(=O)[C@H](Cc2ccc(F)cc2)NC(=O)[C@H](CO)NC(=O)[C@H](C)NC(=O)[C@@H]2CCCN2C1=O,0.075,–
CSCC[C@H](NC(=O)[C@@H]1CCCN1C(=O)[C@@H](NC(=O)[C@@H](NC(=O)[C@H](CCC(N)=O)NC(=O)[C@@H]1CCCN1C(C)=O)[C@@H](C)O)C(C)C)C(=O)N[C@@H](CCCNC(=N)N)C(=O)N[C@@H](CC(C)C)C(=O)N[C@@H](CCCNC(=N)N)C(=O)N[C@@H](CCCCN)C(=O)N[C@@H](CC(C)C)C(=O)N1CCC[C@H]1C(=O)N[C@@H](CC(=O)O)C(=O)N[C@@H](CO)C(=O)N[C@@H](Cc1ccccc1)C(N)=O (Ac-PQTVPMRLRKLPDSF-NH2),–,5.4
CSCC[C@H](NC(=O)[C@@H]1CCCN1C(=O)[C@@H](NC(=O)[C@@H](NC(=O)[C@H](CCC(N)=O)NC(=O)[C@@H]1CCCN1C(C)=O)[C@@H](C)O)C(C)C)C(=O)N[C@@H](CCCNC(=N)N)C(=O)N[C@@H](CC(C)C)C(=O)N[C@@H](CCCNC(=N)N)C(=O)N[C@@H](CCCCN)C(=O)N[C@@H](CC(C)C)C(=O)N1CCC[C@H]1C(=O)N[C@@H](CC(=O)O)C(=O)N[C@@H](CO)C(=O)N[C@@H](Cc1ccccc1)C(=O)N[C@@H](C)C(=O)N[C@@H](CCCCN)C(=O)N1CCC[C@H]1C(=O)N1CCC[C@H]1C(=O)N[C@@H](CCC(=O)O)C(N)=O (Ac-PQTVPMRLRKLPDSFAKPPE-NH2),–,9.4
CSCC[C@H](NC(=O)[C@@H]1CCCN1C(=O)[C@@H](NC(=O)[C@@H](NC(=O)[C@H](CCC(N)=O)NC(=O)[C@@H]1CCCN1C(C)=O)[C@@H](C)O)C(C)C)C(=O)N[C@@H](CCCNC(=N)N)C(=O)N[C@@H](CC(C)C)C(=O)N[C@@H](CCCNC(=N)N)C(=O)N[C@@H](CCCCN)C(=O)N[C@@H](CC(C)C)C(=O)N1CCC[C@H]1C(=O)N[C@@H](CC(=O)O)C(=O)N[C@@H](CO)C(=O)N[C@@H](Cc1ccccc1)C(=O)N[C@@H](Cc1ccccc1)C(N)=O (Ac-PQTVPMRLRKLPDSFF-NH2),–,13
CSCC[C@H](NC(=O)[C@@H]1CCCN1C(=O)[C@@H](NC(=O)[C@@H](NC(=O)[C@H](CCC(N)=O)NC(=O)[C@@H]1CCCN1C(C)=O)[C@@H](C)O)C(C)C)C(=O)N[C@@H](CCCNC(=N)N)C(=O)N[C@@H](CC(C)C)C(=O)N[C@@H](CCCNC(=N)N)C(=O)N[C@@H](CCCCN)C(=O)N[C@@H](CC(C)C)C(=O)N1CCC[C@H]1C(=O)N[C@@H](CC(=O)O)C(=O)N[C@@H](CO)C(=O)N[C@@H](Cc1ccccc1)C(=O)N[C@@H](Cc1ccccc1)C(=O)N[C@@H](C)C(=O)N1CCC[C@H]1C(=O)N1CCC[C@H]1C(=O)N[C@@H](CCC(=O)O)C(N)=O (Ac-PQTVPMRLRKLPDSFFAPPE-NH2),–,42
CSCC[C@H](NC(=O)[C@@H]1CCCN1C(=O)[C@@H](NC(=O)[C@@H](NC(=O)[C@H](CCC(N)=O)NC(=O)[C@@H]1CCCN1C(C)=O)[C@@H](C)O)C(C)C)C(=O)N[C@@H](CCCNC(=N)N)C(=O)N[C@@H](CC(C)C)C(=O)N[C@@H](CCCNC(=N)N)C(=O)N[C@@H](CCCCN)C(=O)N[C@@H](CC(C)C)C(=O)N1CCC[C@H]1C(=O)N[C@@H](CC(=O)O)C(=O)N[C@@H](CO)C(=O)N[C@@H](Cc1ccccc1)C(=O)N[C@@H](Cc1ccccc1)C(=O)N[C@@H](CCCCN)C(N)=O (Ac-PQTVPMRLRKLPDSFFK-NH2),–,14
CSCC[C@H](NC(=O)[C@@H]1CCCN1C(=O)[C@@H](NC(=O)[C@@H](NC(=O)[C@H](CCC(N)=O)NC(=O)[C@@H]1CCCN1C(C)=O)[C@@H](C)O)C(C)C)C(=O)N[C@@H](CCCNC(=N)N)C(=O)N[C@@H](CC(C)C)C(=O)N[C@@H](CCCNC(=N)N)C(=O)N[C@@H](CCCCN)C(=O)N[C@@H](CC(C)C)C(=O)N1CCC[C@H]1C(=O)N[C@@H](CC(=O)O)C(=O)N[C@@H](CO)C(=O)N[C@@H](Cc1ccccc1)C(=O)N[C@@H](Cc1ccccc1)C(=O)N[C@@H](CCCCN)C(=O)N[C@@H](C)C(=O)N1CCC[C@H]1C(=O)N[C@@H](CCC(=O)O)C(N)=O (Ac-PQTVPMRLRKLPDSFFKAPE-NH2),–,47
CSCC[C@H](NC(=O)[C@@H]1CCCN1C(=O)[C@@H](NC(=O)[C@@H](NC(=O)[C@H](CCC(N)=O)NC(=O)[C@@H]1CCCN1C(C)=O)[C@@H](C)O)C(C)C)C(=O)N[C@@H](CCCNC(=N)N)C(=O)N[C@@H](CC(C)C)C(=O)N[C@@H](CCCNC(=N)N)C(=O)N[C@@H](CCCCN)C(=O)N[C@@H](CC(C)C)C(=O)N1CCC[C@H]1C(=O)N[C@@H](CC(=O)O)C(=O)N[C@@H](CO)C(=O)N[C@@H](Cc1ccccc1)C(=O)N[C@@H](Cc1ccccc1)C(=O)N[C@@H](CCCCN)C(=O)N1CCC[C@H]1C(N)=O (Ac-PQTVPMRLRKLPDSFFKP-NH2),–,42
CSCC[C@H](NC(=O)[C@@H]1CCCN1C(=O)[C@@H](NC(=O)[C@@H](NC(=O)[C@H](CCC(N)=O)NC(=O)[C@@H]1CCCN1C(C)=O)[C@@H](C)O)C(C)C)C(=O)N[C@@H](CCCNC(=N)N)C(=O)N[C@@H](CC(C)C)C(=O)N[C@@H](CCCNC(=N)N)C(=O)N[C@@H](CCCCN)C(=O)N[C@@H](CC(C)C)C(=O)N1CCC[C@H]1C(=O)N[C@@H](CC(=O)O)C(=O)N[C@@H](CO)C(=O)N[C@@H](Cc1ccccc1)C(=O)N[C@@H](Cc1ccccc1)C(=O)N[C@@H](CCCCN)C(=O)N1CCC[C@H]1C(=O)N1CCC[C@H]1C(N)=O (Ac-PQTVPMRLRKLPDSFFKPP-NH2),–,52
CC(=O)N[C@@H](CCCNC(=N)N)C(=O)N[C@@H](CC(C)C)C(=O)N[C@@H](CCCNC(=N)N)C(=O)N[C@@H](CCCCN)C(=O)N[C@@H](CC(C)C)C(=O)N1CCC[C@H]1C(=O)N[C@@H](CC(=O)O)C(=O)N[C@@H](CO)C(=O)N[C@@H](Cc1ccccc1)C(=O)N[C@@H](Cc1ccccc1)C(=O)N[C@@H](CCCCN)C(=O)N1CCC[C@H]1C(=O)N1CCC[C@H]1C(=O)N[C@@H](CCC(=O)O)C(N)=O (Ac-RLRKLPDSFFKPPE-NH2),–,12
